The source of these data is patent US4416888A, “3-(2-(4-Piperidyl)-1-alkyl-ethyl)-indoles and their use as medicaments” (Pharmindustrie, priority 1981, dated 1983).

Like-named read-outs stand apart in the source and are kept apart here.

Data set [1] has as its system serotonin uptake by human blood platelets. Briefly: Inhibition of serotonin uptake in human blood platelets. Format: cell-based. Particulars: Platelet, read-out: Inhibition of serotonin uptake I50. An excerpt: It is known that serotonin uptake by the blood platelets is a good model for the uptake of this amine by the neurons (cf. J. Tuomisto, J. Pharm., Pharmac., 26, 92 (1974). When applied to the study of medicaments, any method involving the use of blood platelets is of great interest because it allows the use of human cells, so that its estimation character is good.
"Platelets Function and Thrombosis, a Review of Methods" p. 335 (Plenum Press, London, 1972).
1. Inhibition of Serotonin Uptake
The results are expressed by inhibitory dose 50% or I50 which represents the dose of the product in micromoles per liter which reduce the rate of serotonin uptake by 50%.

Data set [2] concerns male mice CD1 (Charles RIVER). Kind of data set: Acute toxicity in male mice CD1, oral administration. Format: in vivo. Particulars: male CD1 mouse. On the procedure: The acute toxicity of the products has been established in male mice CD1 (Charles RIVER) by oral administration. The compounds according to the invention are relatively not very toxic substances. For example, the product of Example 1 is non-toxic in the mouse if administered at a dose of 100 mg/kg.

The test system of data set [3] is serotonin release, human blood platelets. Kind of data set: Serotonin release from human blood platelets. Format: cell-based. The conditions noted are these: for activation at 50 µM: Platelet, product concentration 5 × 10^-5 moles per liter, increase relative to controls, human blood platelets, read-out: Percent of increased serotonin release. On the procedure:
"Platelets Function and Thrombosis, a Review of Methods" p.
The action of the products on serotonin release is tested at a concentration of 5×10^-5 moles per liter.

Consider `CC(CC1CCNCC1)c1c[nH]c2ccccc12` (stereo not shown) [Example 1, 3-[2-(4-Piperidyl)-1-Methyl-Ethyl]-Indole], for which the IC50 in data set [1] (Homo sapiens) is 50 nM. In addition, in data set [2], the “Acute toxicity at 100 mg/kg” value is on record as “non-toxic”. In addition, the activation at 50 µM in data set [3] amounted to 62%.

`CC(N)Cc1ccc(Cl)cc1` (stereo not shown) [p-chloroamphetamine]: the IC50 in data set [1] (Homo sapiens) amounted to 12000 nM. Moreover, in data set [3], the activation at 50 µM came to 51%. Moreover, the “Serotonin release (in words)” value in data set [3] (compared with p-chloroamphetamine) is “induce serotonin release”.

For `c1ccc2c(CCC3CCNCC3)c[nH]c2c1` [Indalpine, 3-[2-(4-piperidyl)-ethyl]-indole], the IC50 in data set [1] (human blood platelets, dose reducing the rate of serotonin uptake by 50%) came to 35 nM. Moreover, the activation at 50 µM in data set [3] is 22%.

`CN(C)CCCN1c2ccccc2CCc2ccccc21` [Imipramine]: the IC50 in data set [1] (Homo sapiens) turned out to be 400 nM. Besides, in data set [3], the activation at 50 µM was determined as 12%.
